Where only a bound is given, the exact number is not on record here.

For the assay, the target named is T1, KRAS G12D/RAF1 (Homo sapiens, UniProt P01116, G12D).
T1 construct: KRAS (1-169) proteins were expressed in E. coli at 18° C; His6-MBP (N, cleaved yes); made in house; host or cells: E. coli
T1 sequence (P01116 1-169 isoform P01116-2 G12D): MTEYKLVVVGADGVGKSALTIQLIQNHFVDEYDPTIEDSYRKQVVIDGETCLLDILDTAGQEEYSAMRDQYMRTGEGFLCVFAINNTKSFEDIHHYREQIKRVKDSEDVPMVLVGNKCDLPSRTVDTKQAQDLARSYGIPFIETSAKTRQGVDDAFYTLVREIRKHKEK
Put plainly: Protein-protein interaction (PPI) HTRF assay KRAS G12D/RAF1. In kind it is binding. Conditions: KRAS G12D/RAF1, GppNHp-loaded KRAS; 30 minutes pre-incubation. In short, it runs like this: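 Biotinylated GppNHp-loaded RAS (1-169) on streptavidin-d2 acceptor and His-RAF1 RBD (52-131) on anti-His Tb donor, each prepared at 16 nM in pH 7.5 Tris buffer. Compound preincubated with RAS 30 min, then RAF1 added for 1 h at room temperature. IC50 from HTRF 665/615 ratio, normalized to no compound (0%) and untagged RAF1 (100%).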
In general terms: In TR-FRET formats the signal depends on donor and acceptor labels being close together.
On to `OC1CCCN(c2nc(OC[C@@]34CCCN3C[C@H](F)C4)nc3c2COC2(CCc4c(Cl)cccc42)C3)CC1` (mixture of isomers) [Compound 6, 1-[4′-chloro-2-[[rac-(2R,8S)-2-fluoro-1,2,3,5,6,7-hexahydropyrrolizin-8-yl]methoxy]spiro[5,8-dihydropyrano[4,3-d]pyrimidine-7,1′-indane]-4-yl]azepan-4-ol], for which the IC50 (commonly the concentration needed to halve the response being measured) was above 100 µM.
The same measure for `CN(C)C(=O)c1cc2n(n1)CCCN(c1nc(OC[C@@]34CCCN3C[C@H](F)C4)nc3c1COC1(CCCc4c(Cl)cc(O)cc41)C3)C2` (mixture of isomers) [Compound 43, 5-[5′-chloro-7′-hydroxy-2-[[rac-(2R,8S)-2-fluoro-1,2,3,5,6,7-hexahydropyrrolizin-8-yl]methoxy]spiro[5,8-dihydropyrano[4,3-d]pyrimidine-7,1′-tetralin]-4-yl]-N,N-dimethyl-4,6,7,8-tetrahydropyrazolo[1,5-a][1,4]diazepine-2-carboxamide]: 10 to 100 µM.
`C=C1CN2CCCC2(COc2nc3c(c(N4CCCn5nc(C(=O)N(C)C)c(Cl)c5C4)n2)CO[C@@]2(CCc4c(Cl)cccc42)C3)C1` (mixture of isomers) [Compound 54, 3-chloro-N,N-dimethyl-5-[rac-(7S)-4′-chloro-2-[(6-methylene-2,3,5,7-tetrahydro-1H-pyrrolizin-8-yl)methoxy]spiro[5,8-dihydropyrano[4,3-d]pyrimidine-7,1′-indane]-4-yl]-4,6,7,8-tetrahydropyrazolo[1,5-a][1,4]diazepine-2-carboxamide]: the IC50 was in the range of 10 to 100 µM.
On to `Oc1ccc2c(c1)C1(CCC2)Cc2nc(OC[C@@]34CCCN3C[C@H](F)C4)nc(N3CCCCCC3)c2CO1` (single isomer, unassigned) [Compound 7], for which the IC50 was above 100 µM.
Next, `Oc1ccc2c(c1)C1(CCC2)Cc2nc(OC[C@@]34CCCN3C[C@H](F)C4)nc(N3CCCCCC3)c2CO1` (single isomer, unassigned) [Compound 8]: above 100 µM; `O=C1NC(=O)C2(CCCN(c3nc(OC[C@@]45CCCN4C[C@H](F)C5)nc4c3COC3(CCc5c(Cl)cccc53)C4)C2)N1` (single isomer, unassigned) [Compound 24A, (5*)-9-[(7*)-4′-chloro-2-[[(2R,8S)-2-fluoro-1,2,3,5,6,7-hexahydropyrrolizin-8-yl]methoxy]spiro[5,8-dihydropyrano[4,3-d]pyrimidine-7,1′-indane]-4-yl]-1,3,9-triazaspiro[4.5]decane-2,4-dione]: 10 to 100 µM.
The same measure for `F[C@H]1CN2CCC[C@@]2(COc2nc3c(c(N4CCCCCC4)n2)COC2(CCc4c(Cl)cccc42)C3)C1` (stereo partly drawn) [Compound 1, 4′-(azepan-1-yl)-4-chloro-2′-(((2R,7aS)-2-fluorotetrahydro-1H-pyrrolizin-7a(5H)-yl)methoxy)-2,3,5′,8′-tetrahydrospiro[indene-1,7′-pyrano[4,3-d]pyrimidine]]: above 100 µM; for `F[C@H]1CN2CCC[C@@]2(COc2nc3c(c(N4C[C@H]5CC[C@@H](C4)N5)n2)COC2(CCc4c(Cl)cccc42)C3)C1` (stereo partly drawn) [Compound 2, 4′-((1R,5S)-3,8-diazabicyclo[3.2.1]octan-3-yl)-4-chloro-2′-(((2R,7aS)-2-fluorotetrahydro-1H-pyrrolizin-7a(5H)-yl)methoxy)-2,3,5′,8′-tetrahydrospiro[indene-1,7′-pyrano[4,3-d]pyrimidine]]: 10 to 100 µM.
The compound `OC1CCCN(c2nc(OC[C@@]34CCCN3C[C@H](F)C4)nc3c2COC2(CCCc4ccc(Br)cc42)C3)CC1` (stereo partly drawn) [Compound 4, 1-[7′-bromo-2-[[(2R,8S)-2-fluoro-1,2,3,5,6,7-hexahydropyrrolizin-8-yl]methoxy]spiro[5,8-dihydropyrano[4,3-d]pyrimidine-7,1′-tetralin]-4-yl]azepan-4-ol] showed an IC50 above 100 µM.
`F[C@H]1CN2CCC[C@@]2(COc2nc3c(c(N4CCCCCC4)n2)COC2(CCCc4c(Br)cccc42)C3)C1` (stereo partly drawn) [Compound 5, 4-(azepan-1-yl)-5′-bromo-2-[[(2R,8S)-2-fluoro-1,2,3,5,6,7-hexahydropyrrolizin-8-yl]methoxy]spiro[5,8-dihydropyrano[4,3-d]pyrimidine-7,1′-tetralin]] registered an IC50 of 10 to 100 µM.
The same measure for `F[C@H]1CN2CCC[C@@]2(COc2nc3c(c(N4C[C@H]5CC[C@@H](C4)N5)n2)COC2(CCCc4c(Br)cccc42)C3)C1` (stereo partly drawn) [Compound 10, 5′-bromo-4-(3,8-diazabicyclo[3.2.1]octan-3-yl)-2-[[(2R,8S)-2-fluoro-1,2,3,5,6,7-hexahydropyrrolizin-8-yl]methoxy]spiro[5,8-dihydropyrano[4,3-d]pyrimidine-7,1′-tetralin]]: above 100 µM; for `Oc1ccc2c(c1)C1(CCC2)Cc2nc(OC[C@@]34CCCN3C[C@H](F)C4)nc(N3CCCC(O)CC3)c2CO1` (stereo partly drawn) [Compound 14, 2-[[(2S,8R)-2-fluoro-1,2,3,5,6,7-hexahydropyrrolizin-8-yl]methoxy]-4-(4-hydroxyazepan-1-yl)spiro[5,8-dihydropyrano[4,3-d]pyrimidine-7,4′-tetralin]-6′-ol]: above 100 µM; for `OC1CCCN(c2nc(OC[C@@]34CCCN3C[C@H](F)C4)nc3c2COC2(CCCc4c(Cl)cccc42)C3)CC1` (stereo partly drawn) [Compound 15, 1-[5′-chloro-2-[[(2R,8S)-2-fluoro-1,2,3,5,6,7-hexahydropyrrolizin-8-yl]methoxy]spiro[5,8-dihydropyrano[4,3-d]pyrimidine-7,1′-tetralin]-4-yl]azepan-4-ol]: above 100 µM.
The same measure for `N#CC1CCCN(c2nc(OC[C@@]34CCCN3C[C@H](F)C4)nc3c2COC2(CCc4c(Cl)cccc42)C3)CC1` (stereo partly drawn) [Compound 16, 1-(4-chloro-2′-(((2R,7aS)-2-fluorotetrahydro-1H-pyrrolizin-7a(5H)-yl)methoxy)-2,3,5′,8′-tetrahydrospiro[indene-1,7′-pyrano[4,3-d]pyrimidin]-4′-yl)azepane-4-carbonitrile]: above 100 µM; for `OC1CCCN(c2nc(OC[C@@]34CCCN3C[C@H](F)C4)nc3c2COC2(CCCc4ccc(Cl)cc42)C3)CC1` (stereo partly drawn) [Compound 17, 1-(7-chloro-2′-(((2R,7aS)-2-fluorotetrahydro-1H-pyrrolizin-7a(5H)-yl)methoxy)-3,4,5′,8′-tetrahydro-2H-spiro[naphthalene-1,7′-pyrano[4,3-d]pyrimidin]-4′-yl)azepan-4-ol]: 10 to 100 µM; for `F[C@H]1CN2CCC[C@@]2(COc2nc3c(c(N4CCC=CCC4)n2)COC2(CCc4c(Cl)cccc42)C3)C1` (stereo partly drawn) [Compound 18, 4′-chloro-2-[[(2R,8S)-2-fluoro-1,2,3,5,6,7-hexahydropyrrolizin-8-yl]methoxy]-4-(2,3,6,7-tetrahydroazepin-1-yl)spiro[5,8-dihydropyrano[4,3-d]pyrimidine-7,1′-indane]]: 10 to 100 µM.
For `CN(C)C(=O)c1cc2n(n1)CCCN(c1nc(OC[C@@]34CCCN3C[C@H](F)C4)nc3c1CO[C@]1(CCc4c(Cl)cccc41)C3)C2` [Compound 27B, 5-[(7R)-4′-chloro-2-[[(2R,8S)-2-fluoro-1,2,3,5,6,7-hexahydropyrrolizin-8-yl]methoxy]spiro[5,8-dihydropyrano[4,3-d]pyrimidine-7,1′-indane]-4-yl]-N,N-dimethyl-4,6,7,8-tetrahydropyrazolo[1,5-a][1,4]diazepine-2-carboxamide], the IC50 was in the range of 10 to 100 µM.
`CN1Cc2c(nc(OC[C@@]34CCCN3C[C@H](F)C4)nc2N2CCCCCC2)C[C@]12CCc1c(Cl)cccc12` [Compound 28A, (7S)-4-(azepan-1-yl)-4′-chloro-2-[[(2R,8S)-2-fluoro-1,2,3,5,6,7-hexahydropyrrolizin-8-yl]methoxy]-6-methyl-spiro[5,8-dihydropyrido[4,3-d]pyrimidine-7,1′-indane]] came in with an IC50 above 100 µM.
Next, `N#CNC1CCCN(c2nc(OC[C@@]34CCCN3C[C@H](F)C4)nc3c2COC2(CCc4c(Cl)cccc42)C3)C1` (stereo partly drawn) [Compound 29, [1-[4′-chloro-2-[[(2R,8S)-2-fluoro-1,2,3,5,6,7-hexahydropyrrolizin-8-yl]methoxy]spiro[5,8-dihydropyrano[4,3-d]pyrimidine-7,1′-indane]-4-yl]-3-piperidyl]cyanamide]: 10 to 100 µM; `CN(C)C(=O)c1cc2n(n1)CCCN(c1nc(OC[C@@]34CCCN3C[C@H](F)C4)nc3c1CN(C)C1(CCCc4ccc(O)cc41)C3)C2` (stereo partly drawn) [Compound 39, 5-[7′-hydroxy-6-methyl-2-[[(2R,8S)-2-fluoro-1,2,3,5,6,7-hexahydropyrrolizin-8-yl]methoxy]spiro[5,8-dihydropyrido[4,3-d]pyrimidine-7,1′-tetralin]-4-yl]-N,N-dimethyl-4,6,7,8-tetrahydropyrazolo[1,5-a][1,4]diazepine-2-carboxamide]: above 100 µM; `CN(C)C(=O)c1cc2n(n1)CCCN(c1nc(OC[C@@]34CCCN3C[C@H](F)C4)nc3c1CN(C)[C@@]1(CCCc4ccc(O)cc41)C3)C2` [Compound 39A, 5-[(7S)-2-[[(2R,8S)-2-fluoro-1,2,3,5,6,7-hexahydropyrrolizin-8-yl]methoxy]-7′-hydroxy-6-methyl-spiro[5,8-dihydropyrido[4,3-d]pyrimidine-7,1′-tetralin]-4-yl]-N,N-dimethyl-4,6,7,8-tetrahydropyrazolo[1,5-a][1,4]diazepine-2-carboxamide]: 10 to 100 µM.
`Cc1c(C(=O)N(C)C)nn2c1CN(c1nc(OC[C@@]34CCCN3C[C@H](F)C4)nc3c1CO[C@@]1(CCc4c(Cl)cccc41)C3)CCC2` [Compound 42, 5-[(7S)-4′-chloro-2-[[(2R,8S)-2-fluoro-1,2,3,5,6,7-hexahydropyrrolizin-8-yl]methoxy]spiro[5,8-dihydropyrano[4,3-d]pyrimidine-7,1′-indane]-4-yl]-N,N,3-trimethyl-4,6,7,8-tetrahydropyrazolo[1,5-a][1,4]diazepine-2-carboxamide] returned an IC50 of 10 to 100 µM.

These data come from US11912723B2, “KRAS modulators and uses thereof” (Quanta Therapeutics, Inc., priority 2022, dated 2024).
